# Experimental data reported in patent US20020013478A1, “Calanolide analogues and methods of their use” (Sarawak Medichem Pharmaceuticals,Inc., priority 1994, published 2002).
# Where two headings read alike, the source gives them in different places.
# Experiments:
# [1] = system: HCMV; test: HCMV semi-automated CPE-inhibition assay in human foreskin fibroblast cells; type: cell-based, human cytomegalovirus; conditions: Table II; for EC50: Human betaherpesvirus 5, Fibroblast
# [2] = system: HBV; test: HBV replication in cultures of 2.2.15 cells, extracellular HBV virion DNA (primary assay); conditions: for EC50: read-out: HBV EC50
# Method: Both intracellular and extracellular HBV DNA are analyzed in order to (i) allow for verification of compound efficacy and (ii) provide possible data on the target site in the HBV replication pathway for the compound from examination of the pattern of viral replicative forms. The culture medium is changed daily during the treatment period to (i) prevent the buildup of potentially toxic metabolites derived from test compounds and (ii) provide an analysis of HBV virion production during discrete 24-hour intervals which enables a quantitative comparison of any effect on virion production.
# The analysis of HBV DNA is performed using blot hybridization techniques (Southern and slot blot) and [^32P]-labeled HBV-specific probes. HBV DNA levels are measured by comparison to known amounts of HBV DNA standards applied to every nitrocellulose membrane (gel or slot blot). An AMBIS beta scanner, which measures the radioactive decay of the hybridized probes directly from the nitrocellulose membranes, is used for the quantitative analysis. Standard curves, generated by multiple analyses, are used to correlate CPM measurements made by the beta scanner with relative levels of target HBV DNA. The levels of HBV virion DNA released into the culture medium are analyzed by a slot blot hybridization procedure.
# [3] = system: human foreskin fibroblast cells; test: Toxicity run with the HCMV assay, human foreskin fibroblast cells; type: cell-based; conditions: Table II; for IC50: Homo sapiens, Fibroblast
# Method: (§1) [table] […] The media from the wells is then aspirated and 2 mL of each drug concentration is then added to each well. The cells are then incubated in a CO2 incubator at 37° C. for 72 h. At the end of this time, the media-drug solution is removed and the cells washed. […] The cell-media mixture is then pipetted up and down vigorously to break up the cell suspension, and 0.2 mL of the mixture is added to 9.8 mL of Isoton III and counted using a Coulter Counter. Each sample is counted three times with three replicate wells per sample. The procedure for plating cells and adding drug is the same as for the MTT Assay. After drug addition, the plates are incubated for seven days in a CO2 incubator at 37° C. […] This is incubated in the CO2 incubator for one hour. The dye is aspirated and the cells are washed using a Nunc Plate Washer. […] The plates are rotated for 15 minutes and the optical densities are read at 550 nm on a plate reader.
# [4] = system: VZV; test: VZV plaque reduction assay in human foreskin fibroblast cells; type: cell-based, varicella zoster virus; conditions: Table II
# Method: Two days prior to use, HFF cells are plated into six-well plates and incubated at 37° C. with 5% CO2 and 90% humidity. On the date of assay, the drug is made up at twice the desired concentration in 2x MEM and then serially diluted 1:5 in 2x MEM using six concentrations of drug. The initial starting concentration is usually 200 gg/mL down to 0.06 μg/mL. The virus to be used is diluted in MEM containing 10% FBS to a desired concentration which will give 20-30 plaques per well. The media is then aspirated from the wells and 0.2 mL of virus is added to each well in duplicate with 0.2 mL of media being added to drug toxicity wells. The plates are then incubated for one hour with shaking every fifteen minutes. After the incubation period, an equal amount of 1% agarose was added to an equal volume of each drug dilution. This will give final drug concentrations beginning with 100 μg/mL and ending with 0.03 μg/mL and a final agarose overlay concentration of 0.5%. The drug agarose mixture is applied to each well in 2 mL volume and the plates then incubated for three days, after which the cells were stained with a 1.5% solution of neutral red. At the end of 4-6hr incubation period, the stain is aspirated, and plaques counted using a stereomicroscope at lOx magnification.
# The procedure is essentially the same as for the HSV plaque assay described above with two exceptions:
# 1. After addition of the drug, the plates are incubated for ten days.
# 2. On days three and six, an additional 1 mL overlay with equal amounts of 2x MEM and 1% agarose are added.
# [5] = system: Raji or Daudi cells; test: Toxicity run with the EBV assay; type: cell-based, human; conditions: Table II; for IC50: Homo sapiens
# Source text: IC50 (50% inhibitory concentration) is the concentration required to inhibit cell proliferation by 50%
# [6] = system: human foreskin fibroblast cells; test: Toxicity run with the VZV assay, human foreskin fibroblast cells; type: cell-based; conditions: Table II
# Method: as §1
# [7] = system: EBV; test: EBV assay: superinfection of Raji or Daudi cells with P3HR-1, immunofluorescence for EA and VCA; type: cell-based, Epstein-Barr virus; conditions: Table II; for EC50: human gammaherpesvirus 4
# Source text: There are two prototypes of infectious EBV. One is exemplified by the virus derived from supernatant fluids of the P3HR-1cell line. This cell line produces nontransforming virus that causes the production of early antigen (EA) after primary infection or superinfection of B cell lines. The other prototype is exemplified by the B-95-8 virus. This virus immortalized cord blood lymphocytes and induced tumors in marmosets.
# The virus used in our assays is P3HR-1.
# Ramos is an exceptional B cell line derived from Burkitt's lymphoma tumor but containing no detectable EBV genome copies and is EBNA negative. Ramos/AW was obtained by in vitro infection of Ramos with the P3HR-1 virus and contains one resident EBV genome copy/cell. Raji is a Burkitt's lymphoma cell line containing 60 EBV genomes/cell, and will be the primary cell used for screening antiviral activity against EBV EA expression. Daudi is a low level producer that contains 152 EBV genome copies/cell. It spontaneously expresses EBV EA in 0.25%-0.5% of the cells. It will be used in follow-up studies to confirm activity. These cell lines respond to superinfection by EBV by expressing EA(D), EA(R), and VCA. All cell lines are maintained in RPMI-1640 medium supplemented by 10% FCS, L-glutamine and 100 μg/mL gentamicin. The cultures are fed twice weekly and the cell concentration adjusted to 3×10^5/mL. The cells are kept at 37° C. in a humidified atmosphere with 5% CO2.
# Cells are infected with the P3HR-1 strain of EBV and the drugs to be tested are added after adsorption (45 minutes at 37° C.) and washing of the cell cultures. The cultures are incubated for two days in complete medium to allow viral gene expression. Following the 48 hr incubation period, the number of cells of each sample are counted and smears made. Monoclonal antibodies to the different EA components and VCA are then added to the cells incubated and washed. This is followed by a fluorescein conjugated rabbit anti-mouse Ig antibody; and the number of fluorescence positive cells in the smears are counted. The total number of cells in the cultures positive for EA or VCA are then calculated and compared.
# [8] = system: 2.2.15 cells; test: Toxicity in 2.2.15 cells, neutral red dye uptake; type: cell-based, human; conditions: Table II, read-out: HBV IC50
# Method: Cells of 2.2.15 were grown to confluence in 96-well flat-bottomed tissue culture plates and treated with compounds (in 0.2 mL culture medium/well) as described above. Four concentrations of each compound were assayed, each in triplicate cultures, in 3- to 10-fold steps. Untreated control cultures were maintained on each 96-well plate. On each 96-well plate, wells containing no cells were used to correct for light scattering.
# [9] = system: HCMV isolates Towne, AD169, E. Mann, Coffman, C9208; test: Anti-CMV plaque reduction assay against various laboratory and clinical isolates (Example 40); type: cell-based, human cytomegalovirus
# Method: On the date of assay, the drug is made up at twice the desired concentration in 2x MEM and then serially diluted 1:5 in 2x MEM using six concentrations of drug. The initial starting concentration is usually 200 gg/mL down to 0.06 μg/mL. […] The media is then aspirated from the wells and 0.2 mL of virus is added to each well in duplicate with 0.2 mL of media being added to drug toxicity wells. The plates are then incubated for one hour with shaking every fifteen minutes. […] This will give final drug concentrations beginning with 100 μg/mL and ending with 0.03 μg/mL and a final agarose overlay concentration of 0.5%. The drug agarose mixture is applied to each well in 2 mL volume and the plates then incubated for three days, after which the cells were stained with a 1.5% solution of neutral red. At the end of 4-6hr incubation period, the stain is aspirated, and plaques counted using a stereomicroscope at lOx magnification. The procedure again is nearly the same as for HSV with a few minor changes. […] The assay is incubated for 14 days with the additional 1 mL overlays being applied on days four and eight. The procedure for the liquid overlay plaque assay is similar to that using the agarose overlay. The procedure for adding the virus is the same as for the regular plaque assay. The drugs are made up in a concentration to be used in MEM with 2% FBS. The drugs are not made up at 2x concentration as in the previous assays but are made up at the desired concentration. For HSV-1 and HSV-2 assays, an antibody preparation obtained from Baxter Health Care Corporation is diluted 1:500 and added to the media that the drug is diluted in. For CMV and VZV, no antibody in the overlay is utilized. For the CMV assay, additional medium without new drug is added on day five and allowed to incubate for a total of 10 days. For VZV, additional medium is added on day five and incubated for a total of 10 days. At the end of the incubation period for all of the assays, 2 mL of 1:10 dilution of stock neutral is added to each well incubated for six hours. The liquid is then aspirated off and plaques enumerated using a stereomicroscope. Five calanolide analogues, prepared as described above, were further evaluated for their anti-HCMV activity in plaque reduction assay against various laboratory and clinical isolates (Towne, AD 169, E. Mann, Coffinan, and […]).
# [10] = system: HIV-1
# [11] = system: CEM-SS cells; test: CEM-SS MTT assay, cytotoxicity (Table I); type: cell-based, human
SMILES,HCMV EC50 [1],EC50 ([2]; Table II),HCMV IC50 [3],VZV EC50 [4],EBV IC50 [5],VZV IC50 [6],EBV EC50 [7],IC50 [8],also measured
CCCc1cc(=O)oc2c3c(c4c(c12)OC(C)(C)C=C4)OC(C(C)C)C(C)C3=O (racemic) [(+)-15e],>20 µg/mL,> 10 µM,75.3 µg/mL,>100 µg/mL,>50 µg/mL,>100 µg/mL,>50 µg/mL,86 µM,
"CCCc1cc(=O)oc2c3c(c4c(c12)OC(C)(C)C=C4)OC(C)C(C)C3=O (racemic) [(±)-7, 10,11-trans-dihydro-4-propyl-6,6,10,11-tetramethyl-2H,6H,12H-benzo[1,2-b:3,4-b′:5,6-b″]-tripyran-2,12-dione]",,,,,,,,,EC50 ([9]; isolate AD169): 3.16 µM; EC50 ([9]; isolate C9208): 7.16 µM; EC50 ([9]; isolate Coffman): 3.34 µM; EC50 ([9]; isolate E. Mann): 3.16 µM; EC50 ([9]; isolate Towne): 3.34 µM; EC50 ([10]; CEM-SS MTT assay): 1.18 µM; Maximum Protection (%) ([10]; CEM-SS MTT assay): 90%; protecting cells against HIV infection ([10]; text summary of Table I): highly efficacious; IC50 [11]: 19.1 µM
"CCCc1cc(=O)oc2c3c(c4c(c12)OC(C)(C)CC4)OC(C)C(C)C3=O (single isomer, unassigned; (+)) [(+)-18a]",>100 µg/mL,> 10 µM,>100 µg/mL,>100 µg/mL,>50 µg/mL,>100 µg/mL,>50 µg/mL,88 µM,
"CCCc1cc(=O)oc2c3c(c4c(c12)OC(C)(C)C=C4)OC(C)C(C)C3=O (single isomer, unassigned; (-)) [(−)-7]",>20 µg/mL,> 10 µM,23.7 µg/mL,,23.7 µg/mL,,>20 µg/mL,327 µM,
"CCCc1cc(=O)oc2c3c(c4c(c12)OC(C)(C)C=C4)OC(C)C(C)C3=O (single isomer, unassigned; (-)) [(−)-7a]",>4.0 µg/mL,> 10 µM,11.9 µg/mL,,,,,86 µM,
CCCc1cc(=O)oc2c3c(c4c(c12)OC(C)(C)C=C4)O[C@H](C)[C@H](C)C3=O [(+)-7a],,,,,,,,,"EC50 [1]: > 4 µg/mL; EC50 ([2]; Hepatitis B virus): 2.5 µM; EC90 ([2]; Hepatitis B virus, read-out: HBV EC90): 11 µM; IC50 [3]: 11.6 µg/mL; IC50 [5]: 11.9 µg/mL; EC50 [7]: > 4 µg/mL; IC50 ([8]; Homo sapiens): 382 µM"
"CCCc1cc(=O)oc2c3c(c4c(c12)OC(C)(C)C=C4)O[C@@H](C)[C@H](C)[C@@H]3O [(−)-calanolide B, (-)-Calanolide B]",2.6 µg/mL,> 10 µM,78.4 µg/mL,>4.0 µg/mL,>50 µg/mL,20.0 µg/mL,>50 µg/mL,1000 µM,EC50 ([9]; isolate AD169): 3.16 µM; EC50 ([9]; isolate C9208): 2.01 µM; EC50 ([9]; isolate Coffman): 3.18 µM; EC50 ([9]; isolate E. Mann): 3.16 µM; EC50 ([9]; isolate Towne): 3.2 µM
"CCCc1cc(=O)oc2c1c1c(c3oc(C)c(C)c(=O)c32)C=CC(C)(C)O1 [Compound 5, 6,6,10,11-tetramethyl-4-propyl-2H,6H,12H-benzo[1,2-b:3,4-b′:5,6-b″]tripyran-2,12-dione]",,,,,,,,,"EC50 [1]: > 100 µg/mL; EC50 ([2]; Hepatitis B virus): > 10 µM; IC50 [3]: > 100 µg/mL; EC50 ([4]; Human alphaherpesvirus 3, Fibroblast): > 20 µg/mL; IC50 [5]: > 50 µg/mL; IC50 ([6]; Homo sapiens, Fibroblast): 52.2 µg/mL; EC50 [7]: > 50 µg/mL; IC50 ([8]; Homo sapiens): 2080 µM"
